US8404672B2, “Substituted heterocyclic compounds” (Bristol-Meyers Squibb Company, priority 2009, dated 2013)

Tests used:
[1] = target: T1, S1P3 (membranes from S1P3 transfected CHO cells) (Homo sapiens, UniProt Q99500); experiment: Method B: Receptor [35S] GTPγS SPA Binding Assay, S1P3; type: biochemical
T1 construct: expressed in transfected cells; host or cells: CHO cells
Procedure: Method B: Receptor [35S] GTPγS SPA Binding Assays
Membranes prepared from S1P1 or S1P3 transfected CHO cells ([…]) were incubated in 96-well white plates (CORNING® 3693) with test compounds diluted in DMSO, in 50 μl of reaction mixture containing 7.5 μl WGA-PVT beads (20 mg/ml), and 5 μM GDP, 20 mM HEPES pH 7.4, 100 mM NaCl, 1 mM EDTA, 5 mM MgCl2, 10 μg/ml saponin, 0.1% BSA, and 1 μM leupeptin. The assay was initiated with the addition of […] of 0.2 nM [^35S]-GTPγS (1250 Ci/mmol; NEN) in assay buffer. After 90 min incubation at room temperature, spin the plate at 1000 rpm for 5 min. The bound radionuclides were measured at TOPCOUNT®, expressed as % response relative to S1P (1 μM) activation. Data was analyzed using the four parameter logistic equation in Excel. The four parameters in the equation, Y=A+((B−A)/(1+((EC50/X)^D))), are described as following: A is the Y value (agonist activity) at the bottom plateau; B is the Y value at the top plateau; EC50 is the X value (agonist concentration) when the response is halfway between bottom and top; D is Hill coefficient. Curves were not generated for compounds having Ymax values were below 50%.
(§1) Compounds of the present invention and Comparative Compound A were tested in the Receptor [35S] GTPγS Binding Assays (Method A) and Receptor [35S] In some instances, the value is an average of multiple experiments where N is the number of experiments conducted that provided satisfactory dose response curves. When more than one batch of an example was tested, the value presented is from a batch which allowed a comparison of GTPγS S1P1 and GTPγS S1P3 in which the most number of experiments were performed. Preferably, the same batch was examined in Method A and Method B. Data was not averaged across different batches of an example compound.

[2] = test system: rat adjuvant-induced arthritis model (hind paw volume); experiment: Rat Adjuvant Induced Arthritis Assay (AA); type: in vivo, Male Lewis rats; settings: for Paw Swelling on Day 20 (Mean): vehicle mean 1.11
Procedure: Rat Adjuvant Induced Arthritis Assay (AA)
Male Lewis rats (150-175 g; Harlan, n=8 treatment group) were immunized at the base of the tail with 100 μl of 10 mg/ml freshly ground Mycobacterium butyricum (Difco Laboratories) in incomplete Freund's adjuvant (sigma). Animals were dosed once daily with the test article (as a solution or suspension in the vehicle) or vehicle alone (polyethylene glycol 300, “PEG300”) starting from the day of immunization. The volumes of their hind paws were measured in a water displacement plethysmometer (Ugo Basile, Italy). The baseline paw measurements were taken before onset of the disease (between day 7 to day 10). The paw measurements were then taken three times a week until the end of the study on day 20. All procedures involving animals were reviewed and approved by the Institutional Animal Care Use Committee.
A compound of the present invention was tested in the Rat Adjuvant Induced Arthritis assay described hereinabove and the results are shown in Table F.

[3] = target: T2, S1P1 (membranes from S1P1/CHO cells) (Homo sapiens, UniProt P21453); experiment: Method A: Receptor [35S] GTPγS Binding Assay, S1P1; type: biochemical; settings: Method A; S1P1/CHO membranes
T2 construct: expressed in transfected cells; host or cells: S1P1/CHO cells
T2 sequence (P21453 whole entry): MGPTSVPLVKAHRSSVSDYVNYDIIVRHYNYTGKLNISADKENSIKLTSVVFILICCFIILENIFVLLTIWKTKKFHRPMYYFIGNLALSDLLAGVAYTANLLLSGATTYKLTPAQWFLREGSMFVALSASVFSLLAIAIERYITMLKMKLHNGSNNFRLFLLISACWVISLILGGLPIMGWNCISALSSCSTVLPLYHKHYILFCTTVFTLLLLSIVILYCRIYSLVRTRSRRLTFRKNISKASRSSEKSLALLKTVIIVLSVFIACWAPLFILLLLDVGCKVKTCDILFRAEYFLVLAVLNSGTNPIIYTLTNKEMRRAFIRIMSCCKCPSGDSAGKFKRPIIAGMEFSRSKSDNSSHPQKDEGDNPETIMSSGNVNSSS
Procedure: Method A: Receptor [35S] GTPγS Binding Assays
Compounds were loaded in a 384 Falcon v-bottom plate (0.5 μl/well in a 3-fold dilution). Membranes prepared from S1P1/CHO cells or EDG3-Gal5-bla HEK293T cells were added to the compound plate (40 μl/well, final protein 3 μg/well) with MULTIDROP®. [^35S]GTP (1250 Ci/mmol, Perkin Elmer) was diluted in assay buffer: 20 mM HEPES, pH 7.5, 10 mM MgCl2, 150 mM NaCl, 1 mM EGTA, 1 mM DTT, 10 μM GDP, 0.1% fatty acid free BSA, and 10 μg/ml Saponin to 0.4 nM. 40 μl of the [^35S] GTP solution was added to the compound plate with a final concentration of 0.2 nM. The reaction was kept at room temperature for 45 min. At the end of incubation, all the mixtures in the compound plate were transferred to a 384 well FB filter plates via GPCR robot system. The filter plate was washed with water 4 times by using the modified manifold Embla plate washer and dried at 60° C. for 45 min. 30 μA of MicroScint 20 scintillation fluid was added to each well for counting at Packard TOPCOUNT®. EC50 is defined as the agonist concentration that corresponds to 50% of the Ymax (maximal response) obtained for each individual compound tested.
as §1

[4] = test system: circulating lymphocytes; experiment: Blood Lymphocyte Reduction Assay (BLR) in rats; type: in vivo; settings: Lewis rats, oral, vs vehicle group
Procedure: Blood Lymphocyte Reduction Assay (BLR) in Rodents
Lewis rats or BALB/c mice were dosed orally with test article (as a solution or suspension in the vehicle) or vehicle alone (polyethylene glycol 300, “PEG300”). Blood was drawn at 4 hr and 24 h by retro-orbital bleeding. Blood lymphocyte counts were determined on an ADVIA® 120 Hematology Analyzer (Siemens Healthcare Diagnostics). The results were measured as a reduction in the percentage of circulating lymphocytes as compared to the vehicle treated group at the 4 hr and 24 hr measurement. The results represent the average results of all animals within each treatment group (n=3-4).
A compound of the present invention was tested in the Blood Lymphocyte Reduction assay (BLR) described hereinabove and the results are shown in Table D for rats and Table E for mice.

T1 sequence (Q99500 whole entry): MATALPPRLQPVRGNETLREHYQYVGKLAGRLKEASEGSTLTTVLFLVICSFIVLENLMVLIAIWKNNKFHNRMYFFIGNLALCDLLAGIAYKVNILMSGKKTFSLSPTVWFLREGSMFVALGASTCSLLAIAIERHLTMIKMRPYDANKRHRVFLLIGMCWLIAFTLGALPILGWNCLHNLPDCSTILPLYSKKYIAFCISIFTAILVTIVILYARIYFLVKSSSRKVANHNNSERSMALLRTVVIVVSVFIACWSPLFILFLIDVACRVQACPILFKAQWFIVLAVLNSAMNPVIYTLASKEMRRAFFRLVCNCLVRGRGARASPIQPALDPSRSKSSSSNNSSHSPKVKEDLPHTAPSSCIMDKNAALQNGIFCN

Structure (SMILES): O=C(O)C1CN(Cc2ccc(-c3noc(-c4onc(-c5ccccn5)c4C(F)(F)F)n3)cc2)C1 [Example 1, 1-(4-(5-(3-(Pyridin-2-yl)-4-(trifluoromethyl)isoxazol-5-yl)-1,2,4-oxadiazol-3-yl)benzyl)azetidine-3-carboxylic acid]
- EC50 [1]: 6.2 µM
- Paw Swelling on Day 20 (Mean) ([2]; 0.03 mg/kg once daily from day of immunization): 1.48 mL
- Paw Swelling on Day 20 (Mean) ([2]; 0.1 mg/kg once daily from day of immunization): 1.41 mL
- Paw Swelling on Day 20 (Mean) ([2]; 0.5 mg/kg once daily from day of immunization): 0.72 mL
- Paw Swelling on Day 20 (Mean) ([2]; 3.0 mg/kg once daily from day of immunization): 0.07 mL
- disease progression as measured by paw swelling (in words) ([2]; Lewis rat, prophylactic oral dosing): inhibits disease progression
- EC50 [3]: 0.0014 µM
- % reduction in lymphocytes at 4 hr. ([4]; 0.3 mg/kg): 82%
- % reduction in lymphocytes at 24 hr. ([4]; 0.3 mg/kg): 48%
- % reduction in lymphocytes at 4 hr. ([4]; 1.0 mg/kg): 85%
- % reduction in lymphocytes at 24 hr. ([4]; 1.0 mg/kg): 80%
